From publication PMC6003606 (Chemical Science, 2016)
Like-named read-outs stand apart in the source and are kept apart here.

How the values were obtained:
[1] = system: BxPC3; assay: Cytotoxicity, 72 h exposure, pancreatic carcinoma; assay type: cell-based, human; conditions: BxPC3, 72 h exposure
[2] = system: cancer cell lines (panel); assay: Cytotoxicity averaged or compared over the cancer cell line panel; assay type: cell-based, human; conditions: for IC50: read-out: average IC50
[3] = system: A375; assay: Cytotoxicity, 72 h exposure, melanoma; assay type: cell-based, human; conditions: A375, 72 h exposure
[4] = system: A498; assay: Cytotoxicity, 72 h exposure, kidney carcinoma; assay type: cell-based, human; conditions: A498, 72 h exposure
[5] = system: PC3; assay: Cytotoxicity, 72 h exposure, prostate carcinoma; assay type: cell-based, human; conditions: PC3, 72 h exposure
[6] = system: A549; assay: Cytotoxicity, 72 h exposure, lung carcinoma; assay type: cell-based, human; conditions: A549, 72 h exposure
[7] = system: HCT-15; assay: Cytotoxicity, 72 h exposure, colon carcinoma; assay type: cell-based, human; conditions: HCT-15, 72 h exposure
[8] = system: MCF-7; assay: Cytotoxicity, 72 h exposure, breast carcinoma; assay type: cell-based, human; conditions: MCF-7, 72 h exposure
[9] = system: HDAC activity in MCF-7 cells; conditions: free ligand; reported values, no reference given; cited from earlier work
[10] = system: A2780; assay: Cytotoxicity, 72 h exposure, cisplatin-sensitive ovarian cancer cells; assay type: cell-based, human; conditions: A2780, 72 h exposure
[11] = system: A2780cisR; assay: Cytotoxicity, 72 h exposure, cisplatin-resistant ovarian cancer cells; assay type: cell-based, human
[12] = average over five cancer cell lines
[13] = average over the seven cancer cell lines

Compound N.N.[Cl-].[Cl-].[OH-].[OH-].[Pt+4] [IX, ctc-[Pt(NH3)2(OH)2Cl2]] has an IC50 [1] of 6.23 ± 1.47 µM, an IC50 [2, 12] of 7 µM and an IC50 [3] of 1.93 ± 0.75 µM. The IC50 [4] was 22 ± 0.85 µM, the IC50 [5] was 2.98 ± 1.35 µM and the IC50 [6] was 22.5 ± 4.54 µM. For the same compound, the IC50 [7] was 15.3 ± 3.23 µM and the IC50 [8] was 11.5 ± 3.71 µM.

In the case of CCCC(CCC)C(=O)O [VPA, valproate], the “IC50 of extracellular ligand for cellular HDAC activity” value [9] is listed as “mM range” and the “cytotoxic IC50 of uncoordinated HDAC inhibitor ligands” value ([2]; tested cancer cell lines) is listed as “millimolar range”.

Work on N.N.[Cl][Pt][Cl] [cisplatin] yielded an IC50 [10] of 2.8 ± 0.2 µM, an IC50 [1] of 11.4 ± 1.14 µM and an IC50 [2, 13] of 10.3 µM. For the same compound, the IC50 ([2]; over the nine cell lines) was 9.9 µM, the IC50 [3] was 4.03 ± 0.95 µM and the IC50 [4] was 17.5 ± 1.21 µM. It also gave an IC50 [5] of 2.25 ± 0.82 µM, an IC50 [6] of 8.35 ± 0.87 µM and an IC50 [11] of 13.8 ± 0.2 µM. The IC50 [7] was 11.3 ± 1.06 µM and the IC50 [8] was 17.4 ± 0.2 µM.

Compound O=C1[O][Pt]2([NH][C@@H]3CCCC[C@H]3[NH]2)[O]C1=O [oxaliplatin] has an IC50 [10] of 0.52 ± 0.27 µM, an IC50 [1] of 4.15 ± 0.93 µM and an IC50 [2, 13] of 4.2 µM. It also gave an IC50 [3] of 6.3 ± 1.11 µM, an IC50 [4] of 7.94 ± 1.04 µM and an IC50 [5] of 5.24 ± 0.86 µM. It also gave an IC50 [6] of 1.46 ± 0.31 µM, an IC50 [11] of 4.2 ± 1.6 µM and an IC50 [7] of 1.15 ± 0.43 µM. It also gave an IC50 [8] of 3.36 ± 0.2 µM.

Compound [Pt(DACH)(OH)2(ox)] has an IC50 [1] of 14.3 ± 2.09 µM, an IC50 [2, 12] of 13.2 µM and an IC50 [3] of 6.85 ± 1.55 µM. For the same compound, the IC50 [4] was 24.4 ± 5.35 µM, the IC50 [5] was 5.85 ± 1.08 µM and the IC50 [6] was 26.1 ± 2.89 µM. The IC50 [7] was 18.9 ± 3.18 µM and the IC50 [8] was 19.9 ± 1.41 µM.
